Experimental data: BindingDB's records for PubMed 7791071 (Rhone-Poulenc Rorer Central Research, 1995)
Where “and” joins values, the source holds several entries; their conditions need not be identical. Equal values may be shown once.

Target: T1, Cholecystokinin (Sus scrofa, UniProt P01356)
T1 sequence (P01356 whole entry): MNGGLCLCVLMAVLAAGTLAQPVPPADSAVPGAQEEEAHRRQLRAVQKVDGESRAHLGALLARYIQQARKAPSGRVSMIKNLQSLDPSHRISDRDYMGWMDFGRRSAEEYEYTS

SMILES | Ki
O=C(NC(Cc1c[nH]c2ccccc12)C(=O)O)c1ccc(Cl)cc1 (stereo unspecified) | > 10000 nM
Cc1cccc(NC(=O)N[C@H]2N=C(c3ccccc3)c3ccccc3N(C)C2=O)c1 | 7.2 nM and 4.8 nM
CN1C(=O)[C@@H](NC(=O)c2cc3ccccc3[nH]2)N=C(c2ccccc2)c2ccccc21 [1H-Indole-2-carboxylic acid (1-methyl-2-oxo-5-phenyl-2,3-dihydro-1H-benzo[e][1,4]diazepin-3-yl)-amide: 0.1C4H10O. 0.15CH2Cl2] | 141 nM and 87 nM
CSCC[C@H](NC(=O)[C@H](Cc1ccc(OS(=O)(=O)O)cc1)NC(=O)[C@@H](N)CC(=O)O)C(=O)NCC(=O)N[C@@H](Cc1c[nH]c2ccccc12)C(=O)N[C@@H](CCSC)C(=O)N[C@@H](CC(=O)O)C(=O)N[C@@H](Cc1ccccc1)C(N)=O [(3S)-3-[(2S)-2-[(2S)-2-{2-[(2S)-2-[(2S)-2-[(3S)-3-amino-3-formamidopropanoic acid]-3-[4-(sulfooxy)phenyl]propanamido]-4-(methylsulfanyl)butanamido]acetamido}-3-(1H-indol-3-yl)propanamido]-4-(methylsulfanyl)butanamido]-3-{[(1S)-1-carbamoyl-2-phenylethyl]carbamoyl}propanoic acid] | 0.43 nM and 1.1 nM
CSCC[C@H](NC(=O)[C@H](Cc1c[nH]c2ccccc12)NC(=O)CCNC(=O)OC(C)(C)C)C(=O)N[C@@H](CC(=O)O)C(=O)N[C@@H](Cc1ccccc1)C(N)=O [CAS_5534-95-2] | 3.3 nM and 6 nM
CC(Cc1c[nH]c2ccccc12)(NC(=O)OC1C2CC3CC(C2)CC1C3)C(=O)NCC(NC(=O)CCC(=O)O)c1ccccc1 (stereo unspecified) [NSC_108186] | 0.46 nM and 2 nM
